From patent US12084411B2, “Hinokitiol analogues, methods of preparing and pharmaceutical compositions thereof” (The Board of Trustees of the University of Illinois, priority 2018, dated 2024)
Entries after “also recorded” stand apart in the source; their conditions may differ.

Key:
fet3Δftr1Δ yeast = test: Growth rescue of fet3Δftr1Δ yeast with small molecules in liquid media; type: cell-based, Saccharomyces cerevisiae; conditions: liquid low iron SD media, 10 μM FeCl3
Protocol: Growth rescue in yeast was performed similar to previously reported (20) using 10 μM hinokitiol in low iron SD liquid media containing 10 μM FeCl3 in a 96-well plate unless otherwise noted. Wild type and fet3Δftr1Δ controls treated with vehicle (DMSO) were performed under identical conditions using the same low iron SD media containing 10 μM FeCl3 in the absence of hinokitiol. Yeast were grown overnight in YPD media and diluted at an OD600 of 0.1 in SD media, diluted 10-fold, and incubated at 30° C. with continuous shaking (200 rpm). The OD600 was obtained 24-48 hours after inoculation unless otherwise noted.
Small molecule dose-response (FIG. 1F) with hinokitiol and C2-deoxy hinokitiol (C2deOHino, see synthesis below) was determined by addition of the small molecule (40X stock solution in DMSO) to give the indicated final concentrations.

[1] = Determination of small molecule iron binding (UV-Vis); conditions: pH 7.0
Protocol: Small molecule iron (III) binding was determined by UV-Vis spectroscopy of small molecules (30 μM) before and after addition of FeCl3 (10 μM) or iron (III) citrate (10 μM, Sigma F3388) in 10 mM MES/Tris buffer at pH=7.0. Iron (II) binding was determined by UV-Vis spectroscopy of small molecules (30 μM) and FeCl2 (10 μM) in a 25 mM MES/Tris buffer at pH=7.0 containing 62.5 mM sodium ascorbate.

DMT1-deficient MEL cells = test: Differentiation and hemoglobinization of DMT1-deficient MEL cells; type: cell-based, mouse; conditions: 1 μM, three days
Protocol: (§1) Differentiation of MEL Cells with DMSO (FIG. 3D) To perform differentiation experiments with MEL cells (39), the indicated MEL cells were diluted to 1×10^5 cells/mL in MEL Complete media containing 10 μM iron (III) citrate and 2% DMSO in the absence or presence of 1 μM hinokitiol or C2deOHino (added from 1000X stock in DMSO) in 12-well plates. Cells were then incubated at 37° C. for 72 hours unless otherwise noted.
Hemoglobinized MEL cells were quantified three days after DMSO induction through o-dianisidine staining similar to previously reported (74). Cells were centrifuged three days after induction and rinsed with PBS. The cells were then suspended in a solution containing 7.5 mM o-dianisidine, 900 mM H2O2, and 150 mM acetic acid in water at ˜1×10^6 cells/mL. Cells were then imaged on an AXIO Zoom V16 microscope to obtain color images. The number of stained cells were then quantified via ImageJ analysis and compared to the number of total cells in each image. To determine that hinokitiol requires DMSO induction for hemoglobinization, 2% DMSO was not added at the beginning of the experiment before a 72-hour incubation and o-dianisidine staining.
MEL cells were induced for differentiation as described above and incubated at 37° C. for 70 hours before addition of a saturated iron-transferrin (^55Fe2Tf) solution (40 nM final concentration from a 10 μM ^55Fe2Tf stock). The cells were incubated for an additional two hours. After completion, the cells were counted with a hemocytometer, the media was removed after centrifugation, the cells were rinsed with PBS (×3), and the cell suspension was diluted in scintillation cocktail and radioactivity was determined. […] The cells were incubated for an additional eight hours. After completion, the cells were counted with a hemocytometer, the media was removed after centrifugation, and the cells were rinsed with PBS (×3). The cells were then lysed with RIPA buffer, diluted with water, and heme was extracted using a 3:1 ethyl acetate:acetic acid solution. An aliquot of the organic extract was diluted in scintillation cocktail and radioactivity was determined. Radioactive levels were normalized per cell (counted by hemocytometer) relative to wild type (DS19) levels.
MEL cells were induced for differentiation as described above and incubated at 37° C. for 72 hours. After completion, the cells were counted with a hemocytometer, the media was removed after centrifugation, and cells were rinsed with PBS (×2). The cells were then lysed through repeated freeze/thaw cycles with water, and hemoglobin levels per 10^6 cells were determined as previously described (77) by determining the OD415 after centrifugation. Globin levels by western blot were determined after differentiation as described above. After incubation for 72 hours, cells were lysed and globin levels were determined by western blot as described above.

[2] = tested on: Mfrn1-deficient MEL cells; test: Hemoglobinization of Mfrn1-deficient MEL cells; type: cell-based, mouse; conditions: 1 μM
Protocol: as §1
Hemoglobinized MEL cells were quantified three days after DMSO induction through o-dianisidine staining similar to previously reported (74). Cells were centrifuged three days after induction and rinsed with PBS. […] The number of stained cells were then quantified via ImageJ analysis and compared to the number of total cells in each image. […]
MEL cells were induced for differentiation as described above and incubated at 37° C. for 70 hours before addition of a saturated iron-transferrin (^55Fe2Tf) solution (40 nM final concentration from a 10 μM ^55Fe2Tf stock). […] After completion, the cells were counted with a hemocytometer, the media was removed after centrifugation, the cells were rinsed with PBS (×3), and the cell suspension was diluted in scintillation cocktail and radioactivity was determined. […] After completion, the cells were counted with a hemocytometer, the media was removed after centrifugation, and the cells were rinsed with PBS (×3). […]

[3] = tested on: DMT1-deficient Belgrade (b/b) rats; test: 59Fe gut absorption in Belgrade rats; type: in vivo; conditions: 1.5 mg/kg, oral gavage
Protocol: ^59Fe gastrointestinal absorption of iron in 3-5-month-old b/b rats was characterized similar to the procedure described above in the presence of either 6 mM hinokitiol or 6 mM C2deOHino. To compare with the rate of normal iron uptake, age-matched sibling control (+/+ or +/b) Belgrade rats were tested by the same procedure except that ^59Fe was administered without small molecule. Blood (50 μL) was taken from the tail vein at 15, 30, 60, 120, 180, 240, and 360 minutes post administration. Radioactivity was quantified by gamma counting and calculated as the percentage of gavaged dose (±SEM). Animals were humanely euthanized at 6 hours.

[4] = tested on: Alas2-deficient sauternes zebrafish; test: Hemoglobinization in Alas2-deficient sauternes zebrafish; type: in vivo, Danio rerio; conditions: heterozygous cross of +/sau fish, 1 μM, 48 hours
Protocol: Either mutant or morphant embryos were allowed to develop to >24 hours post fertilization (hpf), then dechorionated with pronase as previously described (81). The dechorionated embryos or morphants were then incubated in the presence of 1 μM hinokitiol (or vehicle) and 10 μM iron (III) citrate for an additional forty-eight hours. Vehicle treated embryos were exposed to […]. C2deOHino (1 μM) with iron (III) citrate (10 μM) was used as a negative control. Control and either mutant or morphant embryos at ˜72 hpf were either (a) directly stained by o-dianisidine (79) or (b) mechanically homogenized as previously described for flow cytometry (75, 78).

Caco-2 = test: WST-8 toxicity in Caco-2 cells
Protocol: Determination of small molecule-mediated toxicity in Caco-2, MEL, and/or J774 cells was performed according to manufacturer instructions using a WST-8 kit (Cayman Chemical 10010199) similar to previously reported (76) using a 1000× stock of the indicated small molecule in DMSO to give the indicated final concentration.

CC(C)c1cccc(=O)cc1 [C2deOHino, C2-deoxy hinokitiol]
restoration of fet3Δftr1Δ yeast growth, small molecule dose-response (fet3Δftr1Δ yeast): no biological activity; also recorded: does not
iron binding [1]: does not bind iron; also recorded: cannot bind or transport iron
55Fe uptake (DMT1-deficient MEL cells): no effect
55Fe-heme incorporation (DMT1-deficient MEL cells): no effect
hemoglobinization (DMT1-deficient MEL cells): no effect
hemoglobinization [2]: no effect
reduction in 59Fe absorption relative to sibling controls (+/+ or +/b) [3]: 2 fold
hemoglobinization [4]: do not promote hemoglobinization
EC90 (Caco-2; read-out: Toxicity (EC90), Wild Type Caco-2, WST-8 assay after ≥24 hours of incubation): > 100 µM

CC(C)c1cccc(=O)c(O)c1 [hinokitiol]
restoration of fet3Δftr1Δ yeast growth, small molecule dose-response (fet3Δftr1Δ yeast): dose-dependently restores yeast growth
restoration of fet3Δftr1Δ yeast growth, small molecule dose-response (fet3Δftr1Δ yeast; listed as Hinokitiol): rescues growth of iron transporter-deficient yeast (Fet3Ftr1) at low concentrations
iron binding [1]: binds iron (III)
55Fe uptake (DMT1-deficient MEL cells): restored
55Fe-heme incorporation (DMT1-deficient MEL cells): restored
hemoglobinization (DMT1-deficient MEL cells): restored
hemoglobinization [2]: restored hemoglobinization
gut iron absorption ([3]; after one hour): increased ^55Fe absorption back to control levels
hemoglobinization [4]: did not rescue
hemoglobinization ([4]; listed as Hinokitiol): do not promote hemoglobinization
observable toxicity (Caco-2; Caco-2 monolayers, hinokitiol 500 nM): no observable toxicity
